Reference: patent publication US9382306B2, “Octapeptide compounds derived from somatostatin and the therapeutic use thereof” (IPSEN PHARMA S.A.S., priority 2008, dated 2016)
Values after ≈ are worked out from the molar mass of the structure shown. Values joined by “and” are separate entries in the source; they are usually repeats but may differ in a detail not shown here. Equal entries are not always repeated. Bridge positions count the residues as written; N and C are the ends. Square brackets hold non-standard residues; d marks the D form. Peptide text beside a SMILES is read from it. ξ: configuration not given here. dPhe(3,5-F2) = N[C@H](Cc1cc(F)cc(F)c1)C(=O)O; dPhe(4-F) = N[C@H](Cc1ccc(F)cc1)C(=O)O; d2Nal = N[C@H](Cc1ccc2ccccc2c1)C(=O)O; d(hPhe) = N[C@H](CCc1ccccc1)C(=O)O; Thr(3ξ) = CC(O)[C@H](N)C(=O)O

Assays:
[1] = Self-assembly study: putting peptides in solution in water, macroscopic, ATR-FTIR, TEM and SAXS analysis; type: physicochemical; conditions: 3 to 15% by mass of peptide in water; form and diameter of the self-assembled structure, or soluble / insoluble
Excerpt: The procedure used comprises three stages: putting the peptides in solution and macroscopic analysis; spectroscopic and microscopic analyses of the structures formed and by small-angle X-ray scattering (SAXS) analyses.
The first stage of the characterization of the derivatives is the production of a range of concentrations from 3 to 15% by mass of peptide in water. Gelling of the solution indicates the presence of self-assembled structures which can be nanotubes but can also be fibres or other self-organised structures.
The object of this stage is to verify the presence of self-assembled structures, to characterize their self-assembly and to visualize them by microscopy.
Infrared spectroscopy makes it possible to obtain information on the method of stacking the peptides in the self-assemblies. The amide band spectrum, reflecting the absorption spectra of the carbonyl functions of the peptide backbone, gives information on the type of hydrogen bond in which these groups are involved (H bonds leading to the formation of the […], a helix or also a loop or random conformation) and consequently on the secondary and tertiary structure of the peptides in solution and self-assembled. The attenuated total reflection technique (ATR-FTIR) uses a crystal on which the solid or liquid sample is deposited. The infrared light is guided through this crystal at an angle which allows it to be reflected several times inside the crystal, which increases the sensitivity of the technique. Due to the performance of this device, it is then possible perform measurements on relatively dilute solutions. The beam penetrates a few microns into the sample deposited on the crystal, which means that only the molecules/structures which are deposited on the surface of the crystal are analyzed. Moreover, this technique is non-destructive.
The assembled structures are then visualized by transmission electron microscopy (TEM). This very powerful technique, allowing magnifications greater than 500,000 times, is one of the few techniques capable of visualizing structures on the nanometric scale. The sample is subjected to an electron beam. The visualization of the transmitted beam is produced either by a photoluminescent screen, or by a CCD camera. The sample in the microscope being under vacuum, it is samples dried after staining with uranyl salts in order to increase contrast which are observed.
The peptide in solution is firstly deposited on a copper grid covered with a film of carbon. After deposition of the materiel, the excess liquid is eliminated. In the same way, the solution of colorant, in our case uranyl acetate, is deposited on the grid, the excess is eliminated and the grid is dried in the open air. It can then be introduced into the microscope.
The samples, liquids or gels, are introduced into a capillary column and subjected to a monochromatic flow of X-rays. The intensity diffused is measured as a function of the scattering angle with respect to the incident angle.
The diffusion patterns thus obtained must be the subject of a correlation with a close theoretical model of the structures present in the sample. In the case where the peptides have self-assembled in the form of hollow nanotubes, the modelling of the experimental data with the theoretical diffusion produced by infinitely long hollow columns makes it possible to determine with precision the diameter of the columns and to estimate their wall thickness (Valery et al. in Biophysical journal, 2004, 86(4), 2484-2501 and Proc. Natl. Acad. Sci., 2003, 100(18) 10258-10262). For polydisperse, nanotubular, fibrilar, micellar or lamellar self-assemblies, it is the correlation of the spectroscopic, microscopic and XR scattering data which makes it possible to estimate a size range for the objects observed.

[2] = target: T1, somatostatin receptors sub-type 5 (Homo sapiens, UniProt P35346); test: Affinity for somatostatin receptors: inhibition of [125I-Tyr11]SRIF-14 binding to membranes of transfected CHO-K1 cells; conditions: competitive inhibition of [125I-Tyr11]SRIF-14 binding, 37° C.
T1 construct: expressed in transfected cells; membrane preparations
T1 sequence (P35346 whole entry): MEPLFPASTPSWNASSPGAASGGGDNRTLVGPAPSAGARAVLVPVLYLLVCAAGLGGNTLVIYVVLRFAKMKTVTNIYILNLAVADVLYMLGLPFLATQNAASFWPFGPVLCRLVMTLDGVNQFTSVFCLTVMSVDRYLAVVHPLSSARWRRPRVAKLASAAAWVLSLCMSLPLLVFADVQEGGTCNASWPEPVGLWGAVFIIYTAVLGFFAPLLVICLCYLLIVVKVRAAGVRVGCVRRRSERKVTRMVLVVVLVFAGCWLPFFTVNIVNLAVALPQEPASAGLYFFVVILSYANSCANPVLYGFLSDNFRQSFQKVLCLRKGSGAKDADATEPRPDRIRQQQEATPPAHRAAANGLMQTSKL
Description: (§1) The affinity of the compounds of the invention for the somatostatin receptors is determined by measurement of the inhibition of the bond of [125I-Tyr11]SRIF-14 to membrane preparations of transfected CHO-K1 cells.
(§2) The CHO-K1 cells expressing in a stable fashion each of the sub-types of somatostatin receptors are collected with 0.5 mM of EDTA and centrifuged at 500 g for 5 minutes at 4° C. The pellet is re-suspended in phosphate buffer (PBS) and centrifuged at 500 g for 5 minutes at 4° C. The pellet is re-suspended in Tris 50 mM buffer at pH 7.4 and centrifuged at 500 g for 5 minutes at 4° C. The cells are lyzed by sonication and centrifuged at 39,000 g for 10 minutes. The pellet is re-suspended in Tris 50 mM buffer at pH 7.4, an aliquot is removed for assaying the proteins and the remainder is centrifuged at 50,000 g for 10 minutes. The membranes obtained in this last pellet are stored at −80° C.
(§3) Measurement of the competitive inhibition of the bond of [125I-Tyr11]SRIF-14 (Perkin Elmer) on each of the sub-types of somatostatin receptors is carried out in duplicate in 96-well polypropylene plates. The cell membranes (5 to 20 µg of proteins/well) are incubated with [125I-Tyr11]SRIF-14 (0.05 to 0.1 nM) for 50 to 90 minutes at 37° C. (conditions dependent on the sub-type of receptor) in a HEPES buffer medium 50 mM pH 7.4, comprising 0.2% bovine serum albumin (BSA), MgCl2 5 mM, Trasylol 200 KIU/mL, Bacitracin 0.02 mg/mL, phenylmethylsulphonyl fluoride 0.02 mg/mL.
(§4) The bound [125I-Tyr11]SRIF-14 is separated from the free [125I-Tyr11]SRIF-14 by filtration through GF/C glass fibre plates (Unifilter, Perkin Elmer) pre-impregnated with 0.1% polyethylenimine (P.E.I.), using a Filtermate 96 (Perkin Elmer). The filters are washed with Tris-HCl buffer 50 mM, pH 7.4 at 4° C. and the radioactivity present is determined using a counter (TopCount, Perkin Elmer).
(§5) The data are analyzed by computer-assisted non-linear regression using XLfit 4.2 (IDBS) software.

[3] = target: T2, somatostatin receptors sub-type 2 (Homo sapiens, UniProt P30874); test: as above; conditions: competitive inhibition of [125I-Tyr11]SRIF-14 binding, 37° C.
T2 construct: expressed in transfected cells; membrane preparations
T2 sequence (P30874 whole entry): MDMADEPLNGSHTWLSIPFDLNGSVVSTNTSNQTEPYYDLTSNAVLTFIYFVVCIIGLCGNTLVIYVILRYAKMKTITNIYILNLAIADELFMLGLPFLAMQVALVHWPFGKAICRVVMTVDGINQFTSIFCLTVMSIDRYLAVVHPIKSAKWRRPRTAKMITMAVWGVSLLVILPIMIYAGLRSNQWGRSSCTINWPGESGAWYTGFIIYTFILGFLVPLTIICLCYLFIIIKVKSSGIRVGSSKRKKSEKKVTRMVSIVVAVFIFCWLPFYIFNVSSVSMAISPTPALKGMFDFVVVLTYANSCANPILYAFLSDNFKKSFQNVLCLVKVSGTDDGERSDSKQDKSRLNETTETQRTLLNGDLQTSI
Description: as §1, §2, §3, §4, §5

[4] = Solubility study before preparative HPLC; type: physicochemical; conditions: water-acetonitrile mixture 58:42; water-acetonitrile solution 58:42
Excerpt: The peptide must be dissolved in a water-acetonitrile mixture in order be injected into the preparative HPLC. A solubility study is first carried out on a small quantity. It allows the optimum percentage of acetonitrile and the maximum quantity of peptide to be established. The lowest possible percentage of acetonitrile with a very high concentration of peptide and a resultant clear solution constitute ideal conditions. By way of example, the solubility of the 4-para-fluorophenylalanine derivative (Example 13 hereafter) was established at 49 g l^−1 in a water-acetonitrile solution 58:42.

Compound | Assembly [1] | Ki [2] [nM] | Ki [3] [nM] | solubility [4] [mg/mL]
CC(C)[C@@H]1NC(=O)[C@H](CCCCN)NC(=O)[C@@H](Cc2cc(F)cc(F)c2)NC(=O)[C@H](Cc2ccc(O)cc2)NC(=O)[C@@H](NC(=O)[C@H](N)Cc2ccc3ccccc3c2)CSSC[C@@H](C(=O)N[C@H](C(N)=O)C(C)O)NC1=O (stereo partly drawn) [Example 17, H-D-2-Nal^1-cyclo(Cys^2-Tyr^3-3,5-diF-D-Phe^4-Lys^5-Val^6-Cys^7)-Thr^8-NH2.2 CH3COOH] (H-[d2Nal]CY[dPhe(3,5-F2)]KVC[Thr(3ξ)]-NH2; disulfide 2-7) | monodisperse peptide nanotubes and 15.3 nm monodisperse nanotube | ≤ 100 | ≤ 5 | 
CC(C)[C@@H]1NC(=O)[C@H](CCCCN)NC(=O)[C@@H](Cc2cccs2)NC(=O)[C@H](Cc2ccc(O)cc2)NC(=O)[C@@H](NC(=O)[C@H](N)Cc2ccc3ccccc3c2)CSSC[C@@H](C(=O)N[C@H](C(N)=O)C(C)O)NC1=O (stereo partly drawn) [Example 2, H-D-2-Nal^1-cyclo(Cys^2-Tyr^3-β-(2-thienyl)-D-Ala^4-Lys^5-Val^6-Cys^7)-Thr^8-NH2.2 CH3COOH] | monodisperse peptide nanotubes and 12 nm monodisperse nanotube | ≤ 1000 | ≤ 50 | 
CC(C)[C@@H]1NC(=O)[C@H](CCCCN)NC(=O)[C@@H](Cc2c3ccccc3cc3ccccc23)NC(=O)[C@H](Cc2ccc(O)cc2)NC(=O)[C@@H](NC(=O)[C@H](N)Cc2ccc3ccccc3c2)CSSC[C@@H](C(=O)N[C@H](C(N)=O)C(C)O)NC1=O (stereo partly drawn) [Example 8, H-D-2-Nal^1-cyclo(Cys^2Tyr^3-β-(9-anthryl)-D-Ala^4-Lys^5-Val^6Cys^7)-Thr^8-NH2.2 CH3COOH] | insoluble | ≤ 100 | ≤ 50 | 
CC(C)[C@@H]1NC(=O)[C@H](CCCCN)NC(=O)[C@@H](Cc2ccc(/N=N/c3ccccc3)cc2)NC(=O)[C@H](Cc2ccc(O)cc2)NC(=O)[C@@H](NC(=O)[C@H](N)Cc2ccc3ccccc3c2)CSSC[C@@H](C(=O)N[C@H](C(N)=O)[C@@H](C)O)NC1=O [Example 25, H-D-2-Nal^1-cyclo(Cys^2-Tyr^3-p-phenylazo-D-Phe^4-Lys^5-Val^6-Cys^7)-Thr^8-NH2.2 CH3COOH] | 10 nm monodisperse nanotube | ≤ 1000 | ≤ 50 | 
CC(C)[C@@H]1NC(=O)[C@H](CCCCN)NC(=O)[C@@H](CCc2ccccc2)NC(=O)[C@H](Cc2ccc(O)cc2)NC(=O)[C@@H](NC(=O)[C@H](N)Cc2ccc3ccccc3c2)CSSC[C@@H](C(=O)N[C@H](C(N)=O)C(C)O)NC1=O (stereo partly drawn) [Example 11, H-D-2-Nal^1-cyclo(Cys^2-Tyr^3-D-Homophe^4-Lys^5-Val^6Cys^7)-Thr^8-NH2.2 CH3COOH] (H-[d2Nal]CY[d(hPhe)]KVC[Thr(3ξ)]-NH2; disulfide 2-7) | soluble | ≤ 1000 | ≤ 50 | 
CC(C)[C@@H]1NC(=O)[C@H](CCCCN)NC(=O)[C@@H](c2ccccc2)NC(=O)[C@H](Cc2ccc(O)cc2)NC(=O)[C@@H](NC(=O)[C@H](N)Cc2ccc3ccccc3c2)CSSC[C@@H](C(=O)N[C@H](C(N)=O)C(C)O)NC1=O (stereo partly drawn) [Example 10, H-D-2-Nal^1-cyclo(Cys^2-Tyr^3-D-Phg^4-Lys^5-Val^6-Cys^7)-Thr^8-NH2.2 CH3COOH] | self-assembled fibres | ≤ 5000 | ≤ 700 | 
CC(C)[C@@H]1NC(=O)[C@H](CCCCN)NC(=O)[C@@H](Cc2ccc(O)cc2)NC(=O)[C@H](Cc2ccc(O)cc2)NC(=O)[C@@H](NC(=O)[C@H](N)Cc2ccc3ccccc3c2)CSSC[C@@H](C(=O)N[C@H](C(N)=O)C(C)O)NC1=O (stereo partly drawn) [Example 14, H-D-2-Nal^1-cyclo(Cys^2-Tyr^3-D-Tyr^4-Lys^5-Val^6-Cys^7)-Thr^8-NH2.2 CH3COOH] (H-[d2Nal]CY[dY]KVC[Thr(3ξ)]-NH2; disulfide 2-7) | monodisperse peptide nanotubes and 18 nm monodisperse nanotube | ≤ 1000 | ≤ 5 | 
CC(C)[C@@H]1NC(=O)[C@H](CCCCN)NC(=O)[C@@H](C(C)C)NC(=O)[C@H](Cc2ccc(O)cc2)NC(=O)[C@@H](NC(=O)[C@H](N)Cc2ccc3ccccc3c2)CSSC[C@@H](C(=O)N[C@H](C(N)=O)C(C)O)NC1=O (stereo partly drawn) [Example 5, H-D-2-Nal^1-cyclo(Cys^2Tyr^3-D-Val^4-Lys^5-Val^6Cys^7)-Thr^8-NH2.2 CH3COOH] (H-[d2Nal]CY[dV]KVC[Thr(3ξ)]-NH2; disulfide 2-7) | soluble | ≤ 5000 | ≤ 700 | 
CC(C)[C@@H]1NC(=O)[C@H](CCCCN)NC(=O)[C@@H](Cc2ccc(F)cc2)NC(=O)[C@H](Cc2ccc(O)cc2)NC(=O)[C@@H](NC(=O)[C@H](N)Cc2ccc3ccccc3c2)CSSC[C@@H](C(=O)N[C@H](C(N)=O)C(C)O)NC1=O (stereo partly drawn) [Example 13, H-D-2-Nal^1-cyclo(Cys^2-Tyr^3-p-F-D-Phe^4-Lys^5-Val^6-Cys^7)-Thr^8-NH2.2 CH3COOH] (H-[d2Nal]CY[dPhe(4-F)]KVC[Thr(3ξ)]-NH2; disulfide 2-7) | monodisperse peptide nanotubes and 17 nm monodisperse nanotube | ≤ 1000 | ≤ 5 | 49 (≈ 45.6 mM)
